Laboratory results reported in ChEMBL document CHEMBL1145710, “Antineoplastic agents. 362. Isolation and X-ray crystal structure of dibromophakellstatin from the Indian ocean sponge Phakellia mauritiana” (1997).
Values after ≈ are worked out from the molar mass of the structure shown.

Legend:
Format in all cases: functional
[1] = test system: KM-20L2; experiment: Cytotoxicity against human KM20L2 cells by SRB assay; settings: read-out: ED50 (the source's name)
[2] = test system: SF-295; experiment: Cytotoxicity against human SF295 cells by SRB assay; settings: read-out: ED50 (the source's name)
[3] = test system: NCI-H460; experiment: Cytotoxicity against human H460 cells by SRB assay; settings: read-out: ED50 (the source's name)
[4] = test system: A498; experiment: Cytotoxicity against human A498 cells by SRB assay; settings: read-out: ED50 (the source's name)
[5] = test system: SK-MEL-5; experiment: Cytotoxicity against human SK-MEL-5 cells by SRB assay; settings: read-out: ED50 (the source's name)
[6] = test system: OVCAR-3; experiment: Cytotoxicity against human OVCAR-3 cells by SRB assay; settings: read-out: ED50 (the source's name)
[7] = test system: OVCAR-5; experiment: Cytotoxicity against human OVCAR5 cells by SRB assay
[8] = test system: A549; experiment: Cytotoxicity against human A549 cells by SRB assay
[9] = test system: PC-3; experiment: Cytotoxicity against human PC3 cells by SRB assay
[10] = test system: HOP-92; experiment: Cytotoxicity against human HOP92 cells by SRB assay
[11] = test system: U-251; experiment: Cytotoxicity against human U251 cells by SRB assay
[12] = test system: MDA-MB-231; experiment: Cytotoxicity against human MDA-MB-231 cells by SRB assay
[13] = test system: 786-0; experiment: Cytotoxicity against human 786-0 cells by SRB assay
[14] = test system: COLO 205; experiment: Cytotoxicity against human COLO205 cells by SRB assay
[15] = test system: HT-29; experiment: Cytotoxicity against human HT-29 cells by SRB assay
[16] = Cytotoxicity against human Hs 578T cells by SRB assay
[17] = test system: HCT-116; experiment: Cytotoxicity against human HCT116 cells by SRB assay
[18] = test system: SF-539; experiment: Cytotoxicity against human SF539 cells by SRB assay
[19] = Cytotoxicity against human MCF7/ADR cells by SRB assay; settings: NCI/ADR-RES
[20] = test system: SNB-75; experiment: Cytotoxicity against human SNB75 cells by SRB assay
[21] = test system: OVCAR-8; experiment: Cytotoxicity against human OVCAR8 cells by SRB assay
[22] = test system: NCI-H226; experiment: Cytotoxicity against human NCI-H226 cells by SRB assay
[23] = test system: NCI-H522; experiment: Cytotoxicity against human NCI-H522 cells by SRB assay
[24] = test system: K562; experiment: Cytotoxicity against human K562 cells by SRB assay

| Structure (SMILES) | EC50 [1] [µg/mL] | EC50 [2] [µg/mL] | EC50 [3] [µg/mL] | EC50 [4] [µg/mL] | EC50 [5] [µg/mL] | EC50 [6] [µg/mL] | further results |
| --- | --- | --- | --- | --- | --- | --- | --- |
| NC1=N/C(=C2/CCNC(=O)c3[nH]ccc32)C(=O)N1 [DEBROMOHYMENIALDISINE] | 8.5 (≈ 34.7 µM) | 38.9 (≈ 159 µM) | 42 (≈ 171 µM) | 24.7 (≈ 101 µM) | 5.7 (≈ 23.2 µM) | 1.8 (≈ 7.34 µM) |  |
| NC1=N[C@]23CCCN2C(=O)c2cc(Br)c(Br)n2[C@@H]3N1 [DIBROMOPHAKELLIN] | 20.1 (≈ 51.7 µM) | 18.8 (≈ 48.3 µM) | 22 (≈ 56.5 µM) | 17.8 (≈ 45.8 µM) | 17 (≈ 43.7 µM) | 15.7 (≈ 40.4 µM) |  |
| O=C1N[C@H]2n3c(cc(Br)c3Br)C(=O)N3CCC[C@]23N1 [DIBROMOPHAKELLSTATIN] | 0.11 (≈ 0.282 µM) | 1.5 (≈ 3.85 µM) | 0.62 (≈ 1.59 µM) | 0.21 (≈ 0.538 µM) | 0.11 (≈ 0.282 µM) | 0.46 (≈ 1.18 µM) | GI50 [7]: 676 nM; GI50 [8]: 676 nM; GI50 [9]: 708 nM; GI50 [10]: 490 nM; GI50 [11]: 589 nM; GI50 [12]: 724 nM; GI50 [13]: 603 nM; GI50 [14]: 794 nM; GI50 [15]: 631 nM; GI50 [16]: 871 nM; GI50 [17]: 575 nM; GI50 [18]: 617 nM; GI50 [19]: 525 nM; GI50 [20]: 776 nM; GI50 [21]: 120 nM; GI50 [22]: 871 nM; GI50 [23]: 240 nM; GI50 [24]: 692 nM |
